What all share (assay type): cell-based, Helicobacter pylori
Assay [1] deals with H. pylori. The experiment in a line: MIC and MBC by microbroth dilution assay. As to conditions: Helicobacter pylori. How it is done: The compounds, serially diluted ([…]) in Muller Hinton broth containing 5% FCS, were incubated in 96-well microtitre plate containing fresh cultures of HP001 (˜5.5×10^6 CFU/mL) or ATCC® 43504 (2.65×10^6 CFU/ml) in a final volume of […]. After 72-h of incubation under microaerophilic condition at 37° C., […] of cultures wherein no growth had been detected were streaked on fresh brain heart infusion agar plates for MBC determination.
In microbroth dilution assay employing one clinical and one standard strain, both the bacteriostatic and the bactericidal values were determined for all four compounds as well as for clarithromycin (Table 4). Two-fold serial dilutions were prepared in 96-well microtitre plate containing a total volume of 0.1 mL Mueller Hinton broth supplemented with 5% FCS. A 3-day old liquid culture was diluted 10 times in Mueller Hinton broth and 0.1 mL of these cultures was inoculated into each well to give a final concentration of ˜10^6 CFU/mL. The plates were incubated for 3 days in a microaerophilic atmosphere at 37° C. Following incubation, the plates were examined visually, and the lowest concentration showing complete inhibition of growth was recorded as the MIC of the respective compound (Hachem et al., 1996). Aliquots (0.1 mL) of 72-h culture in which no growth had been detected were taken from the wells of the above microtitre plates and used to streak on fresh BHI agar plates.
In general terms: Broth dilution looks for growth in wells or tubes with falling amounts of substance.

For assay [2], the system named is H. pylori. The assay is described as follows: Anti H. pylori screening by disc diffusion susceptibility assay. As to conditions: for Inhibition Zone Diameter (mm): spacer molecules; for Inhibition zone diameter (score): 100 and 200 mg/disc (so in the source), 72 h. How it is done:
The discs were impregnated with […] of each of the compounds, dissolved either in ethanol or DMSO, and the zone of inhibition was measured after 72 h of growth under microaerophilic conditions at 37° C. Inhibition zone diameter ranging 10-20 mm was given a score of ^+, 20-30 mm as ^++ and that of >30 mm as ^+++, as obtained employing dose range of […]/disc. The detailed structural information of the molecules is provided under ‘Description of the Compounds’.
Methods and protocols for the determination of inhibition zone diameter are as stated under Experiment 1, and that of MIC values by microbroth dilution assay as in Experiment 3. ‘Nil’ means zone of inhibition below 10 mm.
The anti H. pylori activity of all 16 flavonoid molecules, 2 naturally isolated and 14 synthetic derivatives, was screened by disc diffusion sensitivity assay employing 2 clinical strains HP001 and HP002, and three standard strains ATCC® 700392, 43504 and 49503. A 0.5 mL inoculum (10^8 CFU/mL) for each bacterial strain tested was flooded on freshly prepared Brain Heart Infusion (BHI) agar plates supplemented with 7% FCS, 0.5% IsoVitalex and 0.0025% DENT® and the discs (5 mm diameter) containing different compounds or antibiotics (dissolved either in ethanol or DMSO) were placed on the agar surface. After incubation for 3 days in a microaerophilic atmosphere at 37° C., the diameter of the zone of inhibition was measured (Glupczynsky, 1996; McNulty et al., 2002).

Assay [3] has as its system H. pylori. The assay is described as follows: Anti H. pylori spectrum (MIC) by agar dilution method. As to conditions: Helicobacter pylori; for MIC50: MIC against 50% of the strains of the panel, read-out: MIC50. As for the experimental part: MIC was determined using agar dilution assay following the CLSI® guidelines. Six clinical isolates and four standard strains were used for this study. Five microlitre of freshly grown 3-day old culture (˜1×10^8 CFU/mL) was streaked in plates containing 2-fold serial dilution of the compounds ranging […], and incubated under microaerophilic condition at 37° C. After 72 h, the plates were inspected visually for absence of growth to assess the MIC values. The experiment was performed in duplicates. MIC50 is defined as the dose (μg/ml) required for killing 50% of the strains.
Plates contained two-fold serial dilutions of the compounds ranging from […]. Five microlitres of 3-day old freshly grown H. pylori culture (^˜10^8 CFU/mL) was inoculated onto drug-containing BHI agar plates supplemented with 7% FCS, 0.5% IsoVitalex and 0.0025% DENT®, which were then incubated for 3 days under microaerophilic condition at 37° C.
On the technique in general: In agar dilution, organisms are placed on agar that contains the substance at set levels.

Assay [4] relates to H. pylori. The experiment in a line: Time kill kinetic analyses in biphasic culture. The following applies: HP001.
Where [5] appears, read: ATCC43504, microbroth dilution, ATCC 43504.
[6] abbreviates: 72 h, panel of 6 clinical isolates and 4 standard strains, read-out: MIC Range.
The mark [7] stands for this setting: clinical strain HP001, read-out: MIC.
Where [8] appears, read: clinical strain HP002, read-out: MIC.
Setting [9] is: clinical strain HP003, read-out: MIC.
The mark [10] stands for this setting: clinical strain HP004, read-out: MIC.
Setting [11] is: clinical strain HP005, read-out: MIC.
Where [12] appears, read: clinical strain HP006, read-out: MIC.
Where [13] appears, read: standard strain 43504, read-out: MIC.
The mark [14] stands for this setting: standard strain 43629, read-out: MIC.
The mark [15] stands for this setting: standard strain 49503, read-out: MIC.
Where [16] appears, read: standard strain 700392, read-out: MIC.

≈ marks a conversion by molar mass, not a printed value. Read-outs that look alike come from different tables or passages of the source. Bounds are passed on as bounds.

Here are results for 7 molecules from patent US9642854B2, “Flavanoid compounds and process for preparation thereof” (Council of Scientific & Industrial Research, priority 2009, dated 2017).

By MIC is commonly meant the lowest concentration that inhibits growth of the organism. As to `CCCN1CCCCC1` [reference compound], the MIC was greater than 400 µg/mL in the assay with H. pylori [1] (setting [5]) and greater than 400 µg/mL against H. pylori [1] (microbroth dilution, HP001). Besides, the “Inhibition Zone Diameter (mm)” value in the assay with H. pylori [2] (ATCC 43504) and with H. pylori [2] (HP001) was “Nil (‘Nil’ means zone of inhibition below 10 mm.)” in each case.

With `CCCOc1ccc2c(=O)cc(-c3ccccc3)oc2c1` [reference compound], the MIC was greater than 400 µg/mL with H. pylori [1] (setting [5]) and greater than 400 µg/mL against H. pylori [1] (microbroth dilution, HP001). The “Inhibition Zone Diameter (mm)” value in the assay with H. pylori [2] (ATCC 43504) and in the assay on H. pylori [2] (HP001) was “Nil (‘Nil’ means zone of inhibition below 10 mm.)” throughout.

Take `CCCN1CCN(C)CC1` [reference compound]: the MIC in the assay on H. pylori [1] (setting [5]) is greater than 400 µg/mL; against H. pylori [1] (microbroth dilution, HP001) it was greater than 400 µg/mL. Further, the “Inhibition Zone Diameter (mm)” value in the assay on H. pylori [2] (ATCC 43504) and with H. pylori [2] (HP001) was “Nil (‘Nil’ means zone of inhibition below 10 mm.)” in each case.

What is called MIC50 is the lowest concentration that inhibits either 50% of growth or 50% of the strains tested, depending on the study. Consider `O=c1cc(-c2ccccc2)oc2cc(OCCCCCCN3CCOCC3)cc(O)c12` [CHM-1, 5-Hydroxy-7-(6-morpholin-4-yl-hexyloxy)-2-phenyl-chromen-4-one], for which the figures for the MIC50 in the assay with H. pylori [3] (72 h) and in the assay with H. pylori [3] were roughly 25 µg/mL (≈ 59 µM) and 25 µg/mL (≈ 59 µM), respectively. The MIC is 6.25 to 25 µg/mL (≈ 14.8 to 59 µM) in the assay on H. pylori [3] (setting [6]); 25 µg/mL (≈ 59 µM) in the assay on H. pylori [3] (setting [7]); 25 µg/mL (≈ 59 µM) in the assay on H. pylori [3] (setting [8]); less than 12.5 µg/mL in the assay with H. pylori [3] (setting [9]); less than 12.5 µg/mL with H. pylori [3] (setting [10]); less than 12.5 µg/mL in the assay on H. pylori [3] (setting [11]). For the same molecule, the MIC in the assay on H. pylori [3] (setting [12]) was less than 12.5 µg/mL; with H. pylori [3] (setting [13]) it was 25 µg/mL (≈ 59 µM); in the assay with H. pylori [3] (setting [14]), 25 µg/mL (≈ 59 µM); in the assay on H. pylori [3] (setting [15]) it was 25 µg/mL (≈ 59 µM); in the assay with H. pylori [3] (setting [16]), 25 µg/mL (≈ 59 µM). Besides, the “Inhibition zone diameter (score)” value was “Nil (‘Nil’ means zone of inhibition below 10 mm)” in the assay on H. pylori [2] (ATCC standard strain 43504); “+ (Inhibition zone diameter ranging 10-20 mm was given a score of ^+)” with H. pylori [2] (ATCC standard strain 49503); “+ (Inhibition zone diameter ranging 10-20 mm was given a score of ^+)” in the assay on H. pylori [2] (ATCC standard strain 700392); “+ (Inhibition zone diameter ranging 10-20 mm was given a score of ^+)” in the assay on H. pylori [2] (clinical strain HP001); “+ (Inhibition zone diameter ranging 10-20 mm was given a score of ^+)” in the assay with H. pylori [2] (clinical strain HP002).

As to `COCCCN1CCOCC1` [reference compound], the MIC against H. pylori [1] (setting [5]) was greater than 400 µg/mL; with H. pylori [1] (microbroth dilution, HP001) it was greater than 400 µg/mL. In addition, the “Inhibition Zone Diameter (mm)” value in the assay on H. pylori [2] (ATCC 43504) and in the assay with H. pylori [2] (HP001) was “Nil (‘Nil’ means zone of inhibition below 10 mm.)” throughout.

In general, MBC refers to the smallest concentration meeting the test's criterion for killing. High values mean weaker bactericidal potency, low ones greater bactericidal potency. As to `CC[C@H]1OC(=O)[C@H](C)[C@@H](O[C@H]2C[C@@](C)(OC)[C@@H](O)[C@H](C)O2)[C@H](C)[C@@H](O[C@@H]2O[C@H](C)C[C@H](N(C)C)[C@H]2O)[C@](C)(OC)C[C@@H](C)C(=O)[C@H](C)[C@@H](O)[C@]1(C)O` [Clarithromycin, reference compound], in the assay with H. pylori [4] (at around 9 h), the “decrease in cell count” value stood at 1 log. In addition, the “time at which killing/inhibition became evident” value in the assay on H. pylori [4] (biphasic culture) is recorded as “around 9 h”. Besides, the MBC worked out at 0.08 µg/mL (≈ 0.107 µM) in the assay on H. pylori [1] (setting [5]) and 0.04 µg/mL (≈ 0.0535 µM) in the assay on H. pylori [1] (microbroth dilution, HP001). Moreover, the MIC with H. pylori [1] (setting [5]) was 0.04 µg/mL (≈ 0.0535 µM); in the assay with H. pylori [1] (microbroth dilution, HP001) it was 0.01 µg/mL (≈ 0.0134 µM); with H. pylori [3] (setting [6]), 0.016 to 0.1 µg/mL (≈ 0.0214 to 0.134 µM); with H. pylori [3] (setting [7]), 0.016 µg/mL (≈ 0.0214 µM); in the assay on H. pylori [3] (setting [8]), 0.032 µg/mL (≈ 0.0428 µM); in the assay on H. pylori [3] (setting [9]) it was less than 0.02 µg/mL. The MIC in the assay on H. pylori [3] (setting [10]) was determined as 0.04 µg/mL (≈ 0.0535 µM); in the assay with H. pylori [3] (setting [11]) it was 0.08 µg/mL (≈ 0.107 µM); with H. pylori [3] (setting [12]), 0.08 µg/mL (≈ 0.107 µM); with H. pylori [3] (setting [13]), 0.032 µg/mL (≈ 0.0428 µM); in the assay with H. pylori [3] (setting [14]), 0.1 µg/mL (≈ 0.134 µM); with H. pylori [3] (setting [15]) it was 0.016 µg/mL (≈ 0.0214 µM). In addition, in the assay with H. pylori [3] (setting [16]), the MIC came to 0.064 µg/mL (≈ 0.0856 µM). Besides, in the assay with H. pylori [3], the MIC50 amounted to 0.032 µg/mL (≈ 0.0428 µM). The inhibition zone in the assay with H. pylori [2] (strain 43504, 0.04 mg/disc) is given as 20 mm; in the assay on H. pylori [2] (strain 49503, 0.005 mg/disc) it was 15 mm; in the assay on H. pylori [2] (strain 700392, 0.4 mg/disc), 28 mm; in the assay on H. pylori [2] (strains HP001 and HP002, 0.01 mg/disc), 18 mm.

In the case of `CCCN1CCOCC1` [reference compound], the MIC against H. pylori [1] (setting [5]) is greater than 400 µg/mL; with H. pylori [1] (microbroth dilution, HP001), greater than 400 µg/mL. Moreover, the “Inhibition Zone Diameter (mm)” value with H. pylori [2] (ATCC 43504) and in the assay with H. pylori [2] (HP001) was “Nil (‘Nil’ means zone of inhibition below 10 mm.)” throughout.
